Experimental data published in patent publication EP4635500A1, “THERAPEUTIC AGENT FOR BACTERIAL INFECTION” (Sumitomo Pharma Co., Ltd., priority 2022, dated 2024).
Values after ≈ are worked out from the molar mass of the structure shown. Where two headings read alike, the source gives them in different places.

How the values were obtained:
53 CRE and CPE strains = assay: MICrange, MIC50, MIC80, MIC90 for 53 bacterial isolates (Example 5, Table 5); format: cell-based; conditions: 53 bacterial isolates
P. aeruginosa = assay: MIC, broth microdilution, CDC/FDA Antibiotic Resistance Isolate Bank (Example 7, Tables 10, 15); format: cell-based; conditions: for MIC: Pseudomonas aeruginosa, read-out: MIC

SMILES: C[C@H]1[C@H](NC(=O)/C(=N\OC(C)(C)C(=O)O)c2csc(N)n2)C(=O)N1S(=O)(=O)O [Aztreonam, aztreonam]
- MIC80 (53 CRE and CPE strains; read-out: MIC80): > 64 µg/mL
- MIC90 (53 CRE and CPE strains; read-out: MIC90): > 64 µg/mL
- MIC against 26 metallo-carbapenemase-producing strains MIC50 (P. aeruginosa; 26 metallo-carbapenemase-producing P. aeruginosa strains, β-lactamase inhibitor µg/mL in parentheses): 16 µg(mL)
- MIC against 96 strains of P. aeruginosa MIC50 (P. aeruginosa; 96 strains of P. aeruginosa, β-lactamase inhibitor µg/mL in parentheses): 16 µg(mL)
- MIC (P. aeruginosa; P. aeruginosa KUB No. 579, AR Bank # 447): 4 µg/mL (≈ 9.19 µM)
- MIC (P. aeruginosa; P. aeruginosa KUB No. 5551, AR Bank # 54): 32 µg/mL (≈ 73.5 µM)
- MIC (P. aeruginosa; P. aeruginosa KUB No. 5561, AR Bank # 64): 16 µg/mL (≈ 36.7 µM)
- MIC (P. aeruginosa; P. aeruginosa KUB No. 5592, AR Bank # 95): 16 µg/mL (≈ 36.7 µM)
- MIC (P. aeruginosa; P. aeruginosa KUB No. 5597, AR Bank # 100): 32 µg/mL (≈ 73.5 µM)
- MIC (P. aeruginosa; P. aeruginosa KUB No. 5600, AR Bank # 103): 16 µg/mL (≈ 36.7 µM)
- MIC (P. aeruginosa; P. aeruginosa KUB No. 5602, AR Bank # 105): 32 µg/mL (≈ 73.5 µM)
- MIC (P. aeruginosa; P. aeruginosa KUB No. 5605, AR Bank # 108): 8 µg/mL (≈ 18.4 µM)
- MIC (P. aeruginosa; P. aeruginosa KUB No. 5607, AR Bank # 110): 4 µg/mL (≈ 9.19 µM)
- MIC (P. aeruginosa; P. aeruginosa KUB No. 5608, AR Bank # 111): 2 µg/mL (≈ 4.59 µM)
- MIC (P. aeruginosa; P. aeruginosa KUB No. 5663, AR Bank # 230): 4 µg/mL (≈ 9.19 µM)
- MIC (P. aeruginosa; P. aeruginosa KUB No. 5665, AR Bank # 232): 4 µg/mL (≈ 9.19 µM)
- MIC (P. aeruginosa; P. aeruginosa KUB No. 5666, AR Bank # 23): 16 µg/mL (≈ 36.7 µM)
- MIC (P. aeruginosa; P. aeruginosa KUB No. 5667, AR Bank # 234): 2 µg/mL (≈ 4.59 µM)
- MIC (P. aeruginosa; P. aeruginosa KUB No. 5669, AR Bank # 236): 2 µg/mL (≈ 4.59 µM)
- MIC (P. aeruginosa; P. aeruginosa KUB No. 5670, AR Bank # 237): 4 µg/mL (≈ 9.19 µM)
- MIC (P. aeruginosa; P. aeruginosa KUB No. 5671, AR Bank # 238): 4 µg/mL (≈ 9.19 µM)
- MIC (P. aeruginosa; P. aeruginosa KUB No. 5672, AR Bank # 239): 32 µg/mL (≈ 73.5 µM)
- MIC (P. aeruginosa; P. aeruginosa KUB No. 5673, AR Bank # 240): 32 µg/mL (≈ 73.5 µM)
- MIC (P. aeruginosa; P. aeruginosa KUB No. 5674, AR Bank # 241): 32 µg/mL (≈ 73.5 µM)
- MIC (P. aeruginosa; P. aeruginosa KUB No. 5675, AR Bank # 242): 4 µg/mL (≈ 9.19 µM)
- MIC (P. aeruginosa; P. aeruginosa KUB No. 5676, AR Bank # 243): 2 µg/mL (≈ 4.59 µM)
- MIC (P. aeruginosa; P. aeruginosa KUB No. 5677, AR Bank # 244): 32 µg/mL (≈ 73.5 µM)
- MIC (P. aeruginosa; P. aeruginosa KUB No. 5678, AR Bank # 245): 16 µg/mL (≈ 36.7 µM)
- MIC (P. aeruginosa; P. aeruginosa KUB No. 5680, AR Bank # 247): 4 µg/mL (≈ 9.19 µM)
- MIC (P. aeruginosa; P. aeruginosa KUB No. 5681, AR Bank # 248): 4 µg/mL (≈ 9.19 µM)
- MIC (P. aeruginosa; P. aeruginosa KUB No. 5682, AR Bank # 249): 32 µg/mL (≈ 73.5 µM)
- MIC (P. aeruginosa; P. aeruginosa KUB No. 5684, AR Bank # 251): 32 µg/mL (≈ 73.5 µM)
- MIC (P. aeruginosa; P. aeruginosa KUB No. 5685, AR Bank # 252): 32 µg/mL (≈ 73.5 µM)
- MIC (P. aeruginosa; P. aeruginosa KUB No. 5686, AR Bank # 253): 16 µg/mL (≈ 36.7 µM)
- MIC (P. aeruginosa; P. aeruginosa KUB No. 5687, AR Bank # 254): 4 µg/mL (≈ 9.19 µM)
- MIC (P. aeruginosa; P. aeruginosa KUB No. 5688, AR Bank # 255): 8 µg/mL (≈ 18.4 µM)
- MIC (P. aeruginosa; P. aeruginosa KUB No. 5689, AR Bank # 256): 4 µg/mL (≈ 9.19 µM)
- MIC (P. aeruginosa; P. aeruginosa KUB No. 5690, AR Bank # 257): 8 µg/mL (≈ 18.4 µM)
- MIC (P. aeruginosa; P. aeruginosa KUB No. 5691, AR Bank # 258): 4 µg/mL (≈ 9.19 µM)
- MIC (P. aeruginosa; P. aeruginosa KUB No. 5692, AR Bank # 259): 4 µg/mL (≈ 9.19 µM)
- MIC (P. aeruginosa; P. aeruginosa KUB No. 5693, AR Bank # 260): 8 µg/mL (≈ 18.4 µM)
- MIC (P. aeruginosa; P. aeruginosa KUB No. 5694, AR Bank # 261): 4 µg/mL (≈ 9.19 µM)
- MIC (P. aeruginosa; P. aeruginosa KUB No. 5695, AR Bank # 262): 16 µg/mL (≈ 36.7 µM)
- MIC (P. aeruginosa; P. aeruginosa KUB No. 5696, AR Bank # 263): 2 µg/mL (≈ 4.59 µM)
- MIC (P. aeruginosa; P. aeruginosa KUB No. 5697, AR Bank # 264): 2 µg/mL (≈ 4.59 µM)
- MIC (P. aeruginosa; P. aeruginosa KUB No. 5698, AR Bank # 265): 8 µg/mL (≈ 18.4 µM)
- MIC (P. aeruginosa; P. aeruginosa KUB No. 5699, AR Bank # 266): 4 µg/mL (≈ 9.19 µM)
- MIC (P. aeruginosa; P. aeruginosa KUB No. 5700, AR Bank # 267): 4 µg/mL (≈ 9.19 µM)
- MIC (P. aeruginosa; P. aeruginosa KUB No. 5701, AR Bank # 268): 32 µg/mL (≈ 73.5 µM)
- MIC (P. aeruginosa; P. aeruginosa KUB No. 5702, AR Bank # 269): 16 µg/mL (≈ 36.7 µM)
- MIC (P. aeruginosa; P. aeruginosa KUB No. 5703, AR Bank # 270): 2 µg/mL (≈ 4.59 µM)
- MIC (P. aeruginosa; P. aeruginosa KUB No. 5704, AR Bank # 271): 16 µg/mL (≈ 36.7 µM)
- MIC (P. aeruginosa; P. aeruginosa KUB No. 5705, AR Bank # 272): 4 µg/mL (≈ 9.19 µM)
- MIC (P. aeruginosa; P. aeruginosa KUB No. 5749, AR Bank # 353): 8 µg/mL (≈ 18.4 µM)
- MIC (P. aeruginosa; P. aeruginosa KUB No. 5750, AR Bank # 354): 16 µg/mL (≈ 36.7 µM)
- MIC (P. aeruginosa; P. aeruginosa KUB No. 5754, AR Bank # 358): 32 µg/mL (≈ 73.5 µM)
- MIC (P. aeruginosa; P. aeruginosa KUB No. 5755, AR Bank # 359): 32 µg/mL (≈ 73.5 µM)
- MIC (P. aeruginosa; P. aeruginosa KUB No. 5756, AR Bank # 360): 16 µg/mL (≈ 36.7 µM)
- MIC (P. aeruginosa; P. aeruginosa KUB No. 5785, AR Bank # 439): 4 µg/mL (≈ 9.19 µM)
- MIC (P. aeruginosa; P. aeruginosa KUB No. 5786, AR Bank # 440): 32 µg/mL (≈ 73.5 µM)
- MIC (P. aeruginosa; P. aeruginosa KUB No. 5789, AR Bank # 444): 8 µg/mL (≈ 18.4 µM)
- MIC (P. aeruginosa; P. aeruginosa KUB No. 5800, AR Bank # 457): 32 µg/mL (≈ 73.5 µM)
- MIC (P. aeruginosa; P. aeruginosa KUB No. 5805, AR Bank # 863): 16 µg/mL (≈ 36.7 µM)
- MIC (P. aeruginosa; P. aeruginosa KUB No. 5813, AR Bank # 508): > 0.064 µg/mL
- MIC (P. aeruginosa; P. aeruginosa KUB No. 5814, AR Bank # 509): 0.008 µg/mL (≈ 0.0184 µM)
- MIC (P. aeruginosa; P. aeruginosa KUB No. 5815, AR Bank # 510): 0.0005 µg/mL (≈ 0.00115 µM)
- MIC (P. aeruginosa; P. aeruginosa KUB No. 5816, AR Bank # 511): 0.004 µg/mL (≈ 0.00919 µM)
- MIC (P. aeruginosa; P. aeruginosa KUB No. 5817, AR Bank # 512): 0.032 µg/mL (≈ 0.0735 µM)
- MIC (P. aeruginosa; P. aeruginosa KUB No. 5818, AR Bank # 513): 0.032 µg/mL (≈ 0.0735 µM)
- MIC (P. aeruginosa; P. aeruginosa KUB No. 5819, AR Bank # 514): 0.004 µg/mL (≈ 0.00919 µM)
- MIC (P. aeruginosa; P. aeruginosa KUB No. 5820, AR Bank # 515): 0.032 µg/mL (≈ 0.0735 µM)
- MIC (P. aeruginosa; P. aeruginosa KUB No. 5821, AR Bank # 516): > 0.064 µg/mL
- MIC (P. aeruginosa; P. aeruginosa KUB No. 5823, AR Bank # 518): > 0.064 µg/mL
- MIC (P. aeruginosa; P. aeruginosa KUB No. 5831, AR Bank # 526): 0.004 µg/mL (≈ 0.00919 µM)
- MIC (P. aeruginosa; P. aeruginosa KUB No. 5832, AR Bank # 527): 0.032 µg/mL (≈ 0.0735 µM)
- MIC (P. aeruginosa; P. aeruginosa KUB No. 5834, AR Bank # 529): 0.008 µg/mL (≈ 0.0184 µM)
